Reference: patent US12410174B1, “Small molecular inhibitors of sting signaling compositions and methods of use” (TYERELL IMMUNOTHERAPEUTICS INC, priority 2020, dated 2025)
Entries after “also recorded” stand apart in the source; their conditions may differ.

What was measured:
STING signaling [1] = assay: Luciferase live cell assay, type I IFN promoter in hTERT-pIFNβ-Glu cells after ISD transfection; assay type: cell-based, human; conditions: for criteria to inhibit STING dependent signaling (type I IFN promoter in human cells): test of the 25 novel analogs; for inhibitory activity of the type I IFN promoter (luciferase induction): hTERT-pIFNβ-Glu cells, 50 μM or 25 μM, in response to ISD
Description: Inhibition of IFNβ expression was measured by Luciferase induction at 24 hours after transfection of ISD, Mock is shown (210), ISD treatment only (220) was used as a control, according to an embodiment of the invention;
Example 1: Identification of small molecule antagonists of STING. In the presence of cytosolic DNA species, STING becomes activated to drive the transcription of cytokines such as type I IFN. Compounds binding to STING via TSA were subsequently examined for their ability to prevent cytosolic DNA species from activating the type I interferon (IFN) promoter, using a live cell assay. This assay comprised immortalized human fibroblasts that were stably transfected with the type I IFN promoter driving luciferase as well as the CMV promoter driving SEAP (hTERT-pIFNβ-Glu). The live cell assay has previously been disclosed in PCT/JS2019/025380 entitled IFN-βETA REPORTER SYSTEM FOR IMMORTALIZED PRIMARY CELLS inventor Glen N. Barber, which was filed Apr. 2, 2018 and published as WO2019195285, and which is herein incorporated by reference in its entirety and for all purposes. The ability of the small molecules to prevent activation of the type I IFN promoter and the transcription of luciferase, but not SEAP in response to cytosolic DNA species was assessed. The activation of STING, typically by CDNs, in turn activates the transcription factors NF-κB and IRF3, both of which are required to induce the transcriptional stimulation of the Type I IFN promoter, but not the CMV promoter as IRF3 and NF-kB transcription factor binding sites are not contained in the CMV promoter. The assay identified the small molecule Compound Y1 in the first screen (HTS), where the level of luciferase was not able to activate the type I IFN promoter or induce the expression of luciferase (see Table I).
Example 4: hTERT-BJ1 Telomerase Fibroblasts (hTERT) were originally purchased from Clontech and were cultured in 4:1 ratio of DMEM:Medium 199 supplement with 10% FBS, 4 mM L-Glutamine and 1 mM sodium pyruvate at 37° C. in a 5% CO2-humidified atmosphere. hTERT-BJ1 Telomerase Fibroblasts stably expressing the luciferase gene under the control of the interferon-beta promoter and SEAP gene under control of the CMV promoter) (hTERT-pIFNβ-Glu) were generated by the Barber laboratory.
Example 7: Luciferase assay: hTERT-BJ1 Telomerase Fibroblasts stably expressing the luciferase gene under the control of the interferon-beta promoter and SEAP gene under control of the CMV promoter) (hTERT-pIFNβ-Glu) were generated by the Barber laboratory. Luciferase assay was performed using Secrete-Pair Dual Luminescence Assay Kit from GeneCopoeia following the manufacturer's protocol.

STING signaling [2] = assay: qPCR of IFNβ1 / Cxcl10 in normal hTERT cells after ISD transfection; assay type: cell-based, human; conditions: normal hTERT cells stimulated with ISD; 50 μM, 25 μM or 5 μM
Description: (§1) Example 11: qPCR total RNA were reverse-transcribed using M-MLV Reverse Transcriptase (Promega). Real-time PCR was performed using Taqman Gene Expression Assay (Applied Biosystems) for innate immune genes and inflammatory cytokines.

STING signaling [3] = assay: Confocal analysis of STING trafficking and IRF3 translocation in hTERT cells; assay type: cell-based, human; conditions: 6 hours after ISD transfection
Description: FIG. 2E are photographs showing confocal analysis of STING trafficking using anti-Sting performed at 6 hours after ISD transfection with Y1+220/without 220, Mock is shown (210), ISD treatment only (220) was used as control, treatment same as in FIG. 2A, according to an embodiment of the invention;
Example 10: Immunofluorescence Microscopy: Cells were cultured and treated in their appropriate media on Lab-Tek II chamber slides. Cell were fixed with 4% paraformaldehyde for 15 minutes in at 37° C. and permeabilized with 0.05% Triton X-100 for 5 minutes at room temperature. Immunostaining was performed with rabbit-anti-STING polyclonal, rabbit-anti-IRF3 (Santa Cruz Biotechnology) or rabbit-anti-p65 (Cell Signaling) followed by fluorescence conjugated secondary antibodies (FITC-goat-anti-rabbit) (Invitrogen).

STING signaling [4] = assay: qPCR of Cxcl10 / Cxcl5 in MEF cells after ISD transfection; assay type: cell-based, murine
Description: MEFs were obtained from E13.5 embryos by a standard procedure. Bone Marrow Derived Macro-phages (BMDM) were isolated from hind-limb femurs of 8-10 weeks old WT and Trex1 KO (TKO) mice. The hematopoietic cells from the bone marrow were cultured in complete DMEM (Invitrogen) including 10 ng/ml of Mouse Recombinant Colony-Stimulating Factor (M-CSF, R&D Systems) for 10 to 14 days.
as §1

STING signaling [5] = assay: Western blot of STING, TBK1 and IRF3 phosphorylation in MEF cells; assay type: cell-based, murine; conditions: cytosolic DNA
Description: Example 8: Immunoblot analysis: Equal amounts of proteins were resolved on sodium dodecyl sulfate (SDS)-Polyacrylamide gels and then transferred to polyvinylidene fluoride (PVDF) membranes (Millipore). After blocking with 5% Blocking Reagent, membranes were incubated with various primary antibodies (and appropriate secondary antibodies). The image was resolved using an enhanced chemiluminescence system ECL (Thermo Scientific) and detected by autoradiography (Kodak). Antibodies: rabbit polyclonal antibody against STING was developed in our laboratory as described previously in Ishikawa et al, 2008; other antibodies were obtained from following sources: β-actin (Sigma Aldrich), p-IRF3 (Cell Signaling), IRF3 (Santa Cruz Biotechnology), p-p65 (Cell Signaling), p65 (Cell Signaling), p-TBK1 (Cell Signaling), TBK1 (Abcam), cGAS (Cell Signaling).

TREX1-deficient mice = assay: Treatment of TREX1 knockout (TKO) mice: survival and heart histopathology; assay type: in vivo, mouse
Description: Example 12: Mouse Treatment: Trex1 Hetero knockout mice (Trex1^+/−) were generated by crossing the hetero mice. Mouse genotypes from tail biopsies were determined using Real Time PCR with specific probes designed for each gene by commercial vendor (Transnetyx). Trex1 KO (TKO) mice (4-5 weeks old) were intraperitoneally injected with 25 μg Z811 per mouse in 200 μL 1% DMSO in PBS. The mice were injected three times a week for 5 months. The survival rates were evaluated.
Example 13: Histopathology. Mice are sacrificed and the heart tissues were fixed in 10% formalin for 48 hours.

SMILES: N#Cc1c(NC(=O)c2ccccc2Cl)n(CCOc2ccccc2)c2nc3ccccc3nc12 [Compound Y2, 2-chloro-N-[3-cyano-1-(2-phenoxyethyl)-1H-pyrrolo [2,3-b]quinoxalin-2-yl] benzamide]
- criteria to inhibit STING dependent signaling (type I IFN promoter in human cells) (STING signaling [1]): found to meet the criteria to inhibit STING dependent signaling; also recorded: found to meet the criteria to inhibit STING dependent signaling and showed the most effective inhibitory activity

SMILES: N#Cc1c(NC(=O)c2cccc(Cl)c2Cl)n(CCc2ccccc2)c2nc3ccccc3nc12 [Compound Y8, 2,3-dichloro-N-[3-cyano-1-(2-phenylethyl)-1H-pyrrolo[2,3-b]quinoxalin-2-yl]benzamide]
- inhibitory activity of the type I IFN promoter (luciferase induction) (STING signaling [1]): showed robust inhibitory activity of the type I IFN promoter
- criteria to inhibit STING dependent signaling (type I IFN promoter in human cells) (STING signaling [1]): found to meet the criteria to inhibit STING dependent signaling; also recorded: found to meet the criteria to inhibit STING dependent signaling and showed the most effective inhibitory activity
- production of STING-inducible cytokine Cxcl10 (qPCR) (STING signaling [2]): robustly inhibited
- IRF3 translocation (confocal analysis) (STING signaling [3]): reproducibly prevented STING trafficking and IRF3 phosphorylation
- STING trafficking (confocal analysis) (STING signaling [3]): reproducibly prevented STING trafficking and IRF3 phosphorylation
- Cxcl10 production in response to ISD (qPCR) (STING signaling [4]): impede the production of Cxcl10
- phosphorylation of TBK1, IRF3 and STING (Western blot) (STING signaling [5]): can prevent the phosphorylation of TBK1 and IRF3 as well as STING phosphorylation

SMILES: N#Cc1c(NC(=O)c2cccc(F)c2Cl)n(CCc2ccccc2)c2nc3ccccc3nc12 [Compound Y5, 2-chloro-N-[3-cyano-1-(2-phenylethyl)-1H-pyrrolo [2,3-b]quinoxalin-2-yl]-3-floorobenzamide]
- inhibitory activity of the type I IFN promoter (luciferase induction) (STING signaling [1]): showed robust inhibitory activity of the type I IFN promoter
- criteria to inhibit STING dependent signaling (type I IFN promoter in human cells) (STING signaling [1]): found to meet the criteria to inhibit STING dependent signaling; also recorded: found to meet the criteria to inhibit STING dependent signaling and showed the most effective inhibitory activity
- production of STING-inducible cytokine Cxcl10 (qPCR) (STING signaling [2]): robustly inhibited

SMILES: Cc1cccc(C(=O)Nc2c(C#N)c3nc4ccccc4nc3n2CCc2ccccc2)c1Cl [Compound Y9, 2-chloro-N-[3-cyano-1-(2-phenylethyl)-1H-pyrrolo [2,3-β]quinoxalin-2-yl]-3-methylbenzamide]
- inhibitory activity of the type I IFN promoter (luciferase induction) (STING signaling [1]): showed robust inhibitory activity of the type I IFN promoter
- criteria to inhibit STING dependent signaling (type I IFN promoter in human cells) (STING signaling [1]): found to meet the criteria to inhibit STING dependent signaling; also recorded: found to meet the criteria to inhibit STING dependent signaling and showed the most effective inhibitory activity
- production of STING-inducible cytokine Cxcl10 (qPCR) (STING signaling [2]): robustly inhibited
- IRF3 translocation (confocal analysis) (STING signaling [3]): reproducibly prevented STING trafficking and IRF3 phosphorylation
- STING trafficking (confocal analysis) (STING signaling [3]): reproducibly prevented STING trafficking and IRF3 phosphorylation
- Cxcl10 production in response to ISD (qPCR) (STING signaling [4]): impede the production of Cxcl10
- phosphorylation of TBK1, IRF3 and STING (Western blot) (STING signaling [5]): can prevent the phosphorylation of TBK1 and IRF3 as well as STING phosphorylation
- inflammation in the heart (H&E staining) (TREX1-deficient mice): Less inflammation in the heart
- survival of TREX1-deficient mice (TREX1-deficient mice; intraperitoneal, 25 μg/mouse, 5 months, compared to mock treated): extend the survival of TREX1-deficient mice

SMILES: Cc1ccc(Cl)c(C(=O)Nc2c(C#N)c3nc4ccccc4nc3n2CCc2ccccc2)c1 [Compound Y4, 2-chloro-N-[3-cyano-1-(2-phenylethyl)-1H-pyrrolo [2,3-b]quinoxalin-2-yl]-5-methylbenzamide]
- inhibitory activity of the type I IFN promoter (luciferase induction) (STING signaling [1]): showed robust inhibitory activity of the type I IFN promoter
- criteria to inhibit STING dependent signaling (type I IFN promoter in human cells) (STING signaling [1]): found to meet the criteria to inhibit STING dependent signaling; also recorded: found to meet the criteria to inhibit STING dependent signaling and showed the most effective inhibitory activity
- production of STING-inducible cytokine Cxcl10 (qPCR) (STING signaling [2]): robustly inhibited
- IRF3 translocation (confocal analysis) (STING signaling [3]): reproducibly prevented STING trafficking and IRF3 phosphorylation
- STING trafficking (confocal analysis) (STING signaling [3]): reproducibly prevented STING trafficking and IRF3 phosphorylation
- Cxcl10 production in response to ISD (qPCR) (STING signaling [4]): impede the production of Cxcl10
- phosphorylation of TBK1, IRF3 and STING (Western blot) (STING signaling [5]): can prevent the phosphorylation of TBK1 and IRF3 as well as STING phosphorylation

SMILES: N#Cc1c(NC(=O)c2c(F)cccc2Cl)n(CCc2ccccc2)c2nc3ccccc3nc12 [Compound Y6, 2-chloro-N-[3-cyano-1-(2-phenylethyl)-1H-pyrrolo [2,3-b]quinoxalin-2-yl]-6-fluorobenzamide]
- inhibitory activity of the type I IFN promoter (luciferase induction) (STING signaling [1]): showed robust inhibitory activity of the type I IFN promoter
- criteria to inhibit STING dependent signaling (type I IFN promoter in human cells) (STING signaling [1]): found to meet the criteria to inhibit STING dependent signaling; also recorded: found to meet the criteria to inhibit STING dependent signaling and showed the most effective inhibitory activity
- production of STING-inducible cytokine Cxcl10 (qPCR) (STING signaling [2]): robustly inhibited

SMILES: COCCn1c(NC(=O)c2ccccc2Cl)c(C#N)c2nc3ccccc3nc21 [Compound Y3, 2-chloro-N-[3-cyano-1-(2-methoxyethyl)-1H-pyrrolo [2,3-ß]iquinoxalin-2-yl] benzamide]
- criteria to inhibit STING dependent signaling (type I IFN promoter in human cells) (STING signaling [1]): found to meet the criteria to inhibit STING dependent signaling; also recorded: found to meet the criteria to inhibit STING dependent signaling and showed the most effective inhibitory activity

SMILES: N#Cc1c(NC(=O)c2ccccc2Cl)n(CCc2cccc(F)c2)c2nc3ccccc3nc12 [Compound Y7, 2-chloro-N-{3-cyano-1-[2-(3-fluorophenyl)ethyl]-1H-pyrrolo[2,3-b]quinoxalin-2-yl}benzamide]
- inhibitory activity of the type I IFN promoter (luciferase induction) (STING signaling [1]): showed robust inhibitory activity of the type I IFN promoter
- criteria to inhibit STING dependent signaling (type I IFN promoter in human cells) (STING signaling [1]): found to meet the criteria to inhibit STING dependent signaling; also recorded: found to meet the criteria to inhibit STING dependent signaling and showed the most effective inhibitory activity
- production of STING-inducible cytokine Cxcl10 (qPCR) (STING signaling [2]): robustly inhibited
